Laboratory results from patent publication US12006330B2, “Substituted macrocyclic compounds and related methods of treatment” (Alkermes, Inc., priority 2020, dated 2024).

test system: MDCK-MDR1 cells; assay: MDCK-MDR1 permeability assay; assay type: in vitro ADME; settings: MDCK-MDR1 cells; test compound 3 μM; 2 hours at 37 degrees C; apical to basolateral
Method in brief: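 Test compound at 3 μM in HBSS was dosed apical-to-basolateral (with 100 μM Lucifer Yellow) and basolateral-to-apical across MDCK-MDR1 monolayers at 37 °C for 2 h. Receiver and donor samples were quantified by LC-MS/MS. Papp = dQ/dt×1/A×C0, efflux ratio = Papp(B→A)/Papp(A→B), and percent recovery was also derived.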

Papp A → B (10^−6 cm/s) | Structure (SMILES)
0.33 10^−6 cm/s | Cc1ncnc2c1[C@H]1CC[C@H](CC1)OCC1[C@@H](NS(C)(=O)=O)CCCN1C(=O)CO2 (stereo in doubt) [Compound 27]

biological target: T1, human orexin-2 receptor (OX2R) (Homo sapiens, UniProt O43614); assay: Human OX2R IP1 assay; assay type: cell-based; settings: T-Rex CHO cells stably overexpressing human OX2R; IP1 accumulation; 1 hr at 37 degrees C; mean EC50
T1 construct: expressed in transfected cells
T1 sequence (O43614 1-444): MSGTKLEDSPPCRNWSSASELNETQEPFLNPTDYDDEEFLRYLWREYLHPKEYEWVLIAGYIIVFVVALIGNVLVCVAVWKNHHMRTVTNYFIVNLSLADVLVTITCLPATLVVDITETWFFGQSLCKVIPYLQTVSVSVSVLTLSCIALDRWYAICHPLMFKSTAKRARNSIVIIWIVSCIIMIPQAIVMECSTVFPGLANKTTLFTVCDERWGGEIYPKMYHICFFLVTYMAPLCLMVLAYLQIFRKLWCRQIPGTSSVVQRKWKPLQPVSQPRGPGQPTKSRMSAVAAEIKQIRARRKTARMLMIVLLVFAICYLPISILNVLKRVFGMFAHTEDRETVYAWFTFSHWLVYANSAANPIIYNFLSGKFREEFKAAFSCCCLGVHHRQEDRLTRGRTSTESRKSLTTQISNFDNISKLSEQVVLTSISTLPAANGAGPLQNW
Method in brief: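 T-Rex CHO cells stably expressing human OX2R, doxycycline-induced (1 μg/mL) overnight, treated with compounds 1 h at 37 °C in pH 7.4 buffer with 50 mM LiCl. IP1 accumulation read by HTRF competitive immunoassay after 1 h at room temperature; agonist EC50 reported as mean ± S.E.M.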

EC50 | Structure (SMILES)
< 10 nM | O=C1COc2ccccc2[C@H]2CC[C@H](CC2)OCC2[C@@H](NS(=O)(=O)C(F)(F)F)CCN12 (stereo in doubt) [Compound 100]
< 10 nM | O=C1COc2nccnc2[C@H]2CC[C@H](CC2)OCC2[C@@H](NS(=O)(=O)C(F)(F)F)CCCN12 (stereo in doubt) [Compound 98]
< 10 nM | CC(C)S(=O)(=O)N[C@H]1CCN2C(=O)COc3c(F)cc(F)cc3[C@H]3CC[C@H](CC3)OC[C@@H]12 [Compound 29]
10 to 1000 nM | CC(C)(O)C(=O)N1CC[C@H](NS(C)(=O)=O)[C@@H]1Cc1cccc(-c2cc(F)cc(F)c2)c1F [Reference Compound B, N-((2S,3S)-1-(2-hydroxy-2-methylpropanoy1)-2-((2,3′,5′-trifluorobipheny1-3-yl)methyl)pyrrolidin-3-yl)methanesulfonamide, reference compound]
< 10 nM | O=C1COc2ncccc2[C@H]2CC[C@H](CC2)OCC2[C@@H](NS(=O)(=O)C(F)(F)F)CCCN12 (stereo in doubt) [Compound 91]
< 10 nM | COC(=O)N1CCC[C@H](NS(C)(=O)=O)[C@@H]1CO[C@H]1CC[C@@H](c2ccccc2)CC1 [Reference Compound A, methyl (2R,3S)-3-((methylsulfonyl)amino)-2-(((cis-4-phenylcyclohexyl)oxy)methyl)-piperidine-l-carboxylate, reference compound]
< 10 nM | Cc1ncnc2c1[C@H]1CC[C@H](CC1)OCC1[C@@H](NS(C)(=O)=O)CCCN1C(=O)CO2 (stereo in doubt) [Compound 27]
< 10 nM | Cc1ccnc2c1[C@H]1CC[C@H](CC1)OCC1[C@@H](NS(=O)(=O)C(F)(F)F)CCN1C(=O)CO2 (stereo in doubt) [Compound 94]
< 10 nM | Cc1ncnc2c1[C@H]1CC[C@H](CC1)OCC1[C@@H](NS(=O)(=O)C(F)(F)F)CCCN1C(=O)CO2 (stereo in doubt) [Compound 99]
< 10 nM | Cc1cccc2c1[C@H]1CC[C@H](CC1)OC[C@H]1[C@@H](NS(C)(=O)=O)CCN1C(=O)CO2 [Compound 20]
< 10 nM | O=C1COc2cccc(F)c2[C@H]2CC[C@H](CC2)OCC2[C@@H](NS(=O)(=O)C(F)(F)F)CCCN12 (stereo in doubt) [Compound 95]
